This data set in a line: gradient 5% acetonitrile 3 min, to 50% in 2 min, to 85% in 15 min, held 3 min, 100 µL/min. As to conditions: column: Zorbax Extend-C18 2.1 x 50 mm; eluents: water / acetonitrile, 0.1% formic acid. Summed up:
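Retention time was recorded from adduct peaks, which were picked computationally and each inspected manually. Pure standards ran in mixtures of ~100 molecules on HPLC coupled to a quadrupole time-of-flight mass spectrometer, in positive and negative ionization mode, through a Zorbax Extend-C18 column (2.1 × 50 mm, 1.8 μm) at 100 μL/min. Eluents were water and acetonitrile, each with 0.1% formic acid.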
For the compound `Cc1ccc(-c2nccn3cc(C(=O)NCc4ccncc4)nc23)cc1`, the RP-LC retention time turned out to be 633 s.

Compound `COc1ccc(NC(=O)Nc2cccc(-c3nccnc3N3CCCC3)c2)c(OC)c1` had an RP-LC retention time of 881 s.

Compound `Cc1ccc2c(=O)c(C(=O)N3CCCC3)cn(CC(=O)Nc3ccccc3C)c2n1` gave an RP-LC retention time of 692 s.

Compound `O=c1c2cnc3nc(-c4ccccc4)nn3c2ccn1CCc1c[nH]c2ccccc12` gave an RP-LC retention time of 925 s.

For the compound `C[C@H]1CN(S(=O)(=O)c2ccccc2)C[C@@H]1c1nc(-c2ccncc2)no1`, the RP-LC retention time turned out to be 871 s.

`O=C(c1nc(-c2cccc(F)c2)n2c1CCCCC2)N1CCN(c2ncccn2)CC1`: the RP-LC retention time is 724 s.

On to `CC(=O)Nc1ccc(NC(=O)c2nc3ccccn3c2-c2ccc(Cl)cc2)cc1`, for which the RP-LC retention time worked out at 855 s.

The compound `CC(C(=O)Nc1cc(F)ccc1F)C1CCN(C(=O)Nc2ccccc2)CC1` (centres undefined) came in with an RP-LC retention time of 867 s.

In turn, `CCCn1cnc2cc(CNC(=O)CCC3CCCC3)ccc21` yielded an RP-LC retention time of 649 s.

Consider `O=C(CCc1ccc2c(c1)CN(C(=O)C1COc3ccccc3O1)CCO2)N1CCOCC1` (centres undefined), for which the RP-LC retention time was 779 s.

The compound `CCN1CCN(c2cc(C)c3cc(NC(=O)COc4ccccc4)ccc3n2)CC1` gave an RP-LC retention time of 609 s.

For `CC1CCCN(S(=O)(=O)c2cc(C(=O)Nc3ccc(F)c(Cl)c3)n(C)c2)C1` (centres undefined), the RP-LC retention time is 1170 s.

`CCOC(=O)c1c(-c2ccccc2)csc1NC(=O)c1ccccc1C(=O)O` returned an RP-LC retention time of 963 s.

The compound `Cn1cc(-c2ccncc2)cc1C(=O)N1CCN(c2ccc(F)cc2)CC1` returned an RP-LC retention time of 632 s.

`Cc1ccc(NC(=O)N2C[C@@H](F)C[C@H]2C(=O)N2CCc3ccccc3C2)cc1C` displayed an RP-LC retention time of 817 s.

`Cc1ccc(F)cc1NS(=O)(=O)c1cc2n(c1)CCN(C(C)C)C2=O` had an RP-LC retention time of 783 s.

In turn, `CN1C(=O)c2cccn2CC1CNC(=O)c1nccn1C` (centres undefined) gave an RP-LC retention time of 573 s.

Regarding `COc1ccc(CCNC(=O)CSc2cc(N3CCC(C(=O)NC4CC4)CC3)ncn2)cc1OC`, the RP-LC retention time worked out at 624 s.

`CC(C)Cn1ccc2c(cc(C(=O)NCCCN3CCOCC3)n2C)c1=O` displayed an RP-LC retention time of 594 s.

In turn, `CC(C)n1c(CCNC(=O)c2ccccc2)nc2cccnc21` displayed an RP-LC retention time of 640 s.

`Cc1ccsc1CN1CCn2nnc(CCC(=O)N3CCCC3)c2C1` came in with an RP-LC retention time of 646 s.

`Cc1ccc(-n2cc3c(N4CCCC(C(=O)NCc5ccc(C(F)(F)F)cc5)C4)ncnc3n2)cc1` (centres undefined) came in with an RP-LC retention time of 786 s.

`COc1ccc(CC(=O)N(C)CC2(C)CCOCC2)cc1Cl`: the RP-LC retention time worked out at 818 s.

In the case of `Cc1ccc(C)c(NS(=O)(=O)c2cc3n(c2)CCN(C)C3=O)c1`, the RP-LC retention time was found to be 707 s.

With `CNC(=O)C1CCN(C(=O)Nc2ccc(NC(=O)Nc3ccc(C)cc3)cc2)CC1`, the RP-LC retention time amounted to 658 s.

`CC(C)[Si]1(C(C)C)OCC2OC(n3cnc4c(N)ncnc43)C(N)C2O[Si](C(C)C)(C(C)C)O1` (centres undefined) had an RP-LC retention time of 828 s.

As for `CN1CCN(CCCNC(=O)CC2CCN(C(=O)c3cc4cc(Cl)ccc4[nH]3)CC2)CC1`, the RP-LC retention time was 569 s.

Take `COC1CCC12CCN(C(=O)c1ccc(Cc3c(C)noc3C)o1)CC2` (centres undefined): the RP-LC retention time was 800 s.

`COc1ccc(-c2nnc(-c3ccccc3)o2)cc1S(N)(=O)=O`: the RP-LC retention time is 716 s.

With `COc1cc(OC)cc(-c2nc(-c3ccc(NS(=O)(=O)c4cccs4)cc3)no2)c1`, the RP-LC retention time was 1120 s.

`Cc1c(Cl)cccc1NS(=O)(=O)c1cc(-c2nc(C(C)(C)C)cs2)cs1` yielded an RP-LC retention time of 1340 s.

For `COC(=O)CNC(=O)C1COc2ccc(NC(=O)c3ccc(Cl)cc3)cc2C1` (centres undefined), the RP-LC retention time is 794 s.

Compound `O=C(Cn1cccc1-c1nc(-c2ccc(Cl)cc2)cs1)N1CCOCC1` gave an RP-LC retention time of 1040 s.

Consider `COc1cc(OC)cc(C(=O)N2CCC(C(=O)NCCc3csc(-c4cccs4)n3)CC2)c1`, for which the RP-LC retention time was found to be 792 s.

As to `COc1cc(NC(=O)c2c(OC)cc(=O)n3c2CCCC3)cc(OC)c1OC`, the RP-LC retention time is 779 s.

For `COC(=O)c1sc2ccccc2c1NC(=O)c1cc(C)n(C)n1`, the RP-LC retention time was 886 s.

As for `CC(C)Cn1c(=O)c(N2CCN(C(=O)c3ccccc3Cl)CC2)nc2ccncc21`, the RP-LC retention time was found to be 682 s.

Compound `O=C(CCC1CCCN(c2cc(NC3CC3)ncn2)C1)NCCc1ccncc1` (centres undefined) displayed an RP-LC retention time of 564 s.

In the case of `O=C(NCc1ccccc1)c1c(O)c2cccnc2[nH]c1=O`, the RP-LC retention time amounted to 913 s.

In turn, `Cc1ccc(-c2nc(-c3ccc4c(c3)ncn4CCN3CCCCC3)no2)s1` displayed an RP-LC retention time of 646 s.

As for `Cc1ccccc1CN1CC(=O)N(c2ccccc2)[C@@H]2CS(=O)(=O)C[C@@H]21`, the RP-LC retention time worked out at 800 s.

Consider `CC(C)Cn1c(CCNC(=O)c2ccc(C#N)cc2)nc2cccnc21`, for which the RP-LC retention time was determined as 709 s.

As for `O=C1NCCCn2cc(S(=O)(=O)N3CCN(c4ccc(Cl)cc4)CC3)cc21`, the RP-LC retention time amounted to 804 s.

In the case of `N#Cc1ccccc1CN1C[C@@H](CO)[C@H](c2nc(C3CC3)no2)C1`, the RP-LC retention time was 607 s.

On to `COc1ccc(-c2cc(C(=O)Nc3ccc4c(c3)CCC(=O)N4)c3ccccc3n2)cc1`, for which the RP-LC retention time was found to be 822 s.

`Cc1oc(-c2[nH]ncc2C(=O)N2CCCCC2)cc1S(=O)(=O)NCc1ccncc1` yielded an RP-LC retention time of 575 s.

`CCOc1ccccc1NC(=O)N1CCC2(C1)C(=O)Nc1ccc(OC)cc12` (centres undefined) registered an RP-LC retention time of 810 s.

For the compound `CCOc1ccccc1C(=O)Nc1c(-c2ccccc2)nc2ccccn12`, the RP-LC retention time turned out to be 685 s.

Regarding `COC(=O)c1c(NCCc2c[nH]c3ccccc23)c2ccccc2[nH]c1=O`, the RP-LC retention time worked out at 744 s.

The compound `COc1ccc(NC(=O)c2ccc(Cl)s2)c2ccccc12` yielded an RP-LC retention time of 920 s.

With `COc1ccc(NC(=O)N2C[C@@H](F)C[C@H]2C(=O)N2CCCCC2)cc1F`, the RP-LC retention time turned out to be 660 s.

As for `Cc1ccc(CNC(=O)N2CCC(n3c(-c4ccco4)nc4cccnc43)C2)cc1` (centres undefined), the RP-LC retention time came out at 762 s.

Compound `O=C(CCc1nc(CSc2nnc(-c3ccccc3)o2)no1)Nc1ccccc1` gave an RP-LC retention time of 863 s.

As for `CCCOc1nc2ccccc2nc1N1CCCC(C(=O)NCc2ccccc2C)C1` (centres undefined), the RP-LC retention time is 1240 s.

Compound `CCn1ccc2sc(C)c(C(=O)N3CCN(c4ccc(OC)cc4)CC3)c2c1=O` had an RP-LC retention time of 714 s.

Compound `O=C1NCCCCCN(C(=O)c2ccc(Cn3cncn3)o2)[C@H]2CCC[C@@H]12` registered an RP-LC retention time of 608 s.

In turn, `Cc1cc(NC(=O)c2ccc(-c3cncnc3)nc2)ccc1Br` had an RP-LC retention time of 859 s.

Turning to `CCS(=O)(=O)N1CCCc2cc(C(=O)NCc3ccc4c(c3)OCO4)ccc21`, the RP-LC retention time amounted to 832 s.

The compound `COc1ccc(C2Cn3nnc(-c4nc(-c5ccc(F)c(F)c5)no4)c3CO2)cc1` (centres undefined) returned an RP-LC retention time of 1180 s.

In turn, `CCn1nc(C)c2ccnc(N3CCC(C(=O)N4CCN(c5ccccc5Cl)CC4)CC3)c21` returned an RP-LC retention time of 812 s.

`CCOc1cccc(-c2noc(Cn3ccnc3C)n2)c1` had an RP-LC retention time of 647 s.

With `CC(=O)Nc1ccc(C(=O)N2CCC3(CC2)N=C(c2ccc(Cl)cc2)NO3)cc1`, the RP-LC retention time was determined as 718 s.

The compound `O=C(Cn1cnc2ccccc21)OCc1cc(-c2ccc3c(c2)OCO3)on1` showed an RP-LC retention time of 639 s.

Compound `Cc1nn(C(C)C(=O)NCCCN2CCCCC2)c(=O)c2c(-n3cccc3)n(-c3ccccc3)nc12` (centres undefined) displayed an RP-LC retention time of 700 s.

`OC(C#Cc1ccccc1)(c1ccccc1)c1ccccc1` registered an RP-LC retention time of 764 s.

In turn, `O=C(Nc1ccc(F)c(Cl)c1)c1c(O)c2cccnc2n(Cc2ccccc2)c1=O` returned an RP-LC retention time of 1230 s.

Take `COc1ccc2[nH]cc(CCNC(=O)Cn3c4ccccc4c4cnn(C)c(=O)c43)c2c1`: the RP-LC retention time worked out at 767 s.

`Cc1cc(C)c(S(=O)(=O)Nc2ccc(CC(=O)N3CCC(O)CC3)cc2)c(C)c1` displayed an RP-LC retention time of 676 s.

Take `CCOc1cc2c(cc1OCC)C1C(C(=O)NCCCN3CCCC3)c3ccccc3C(=O)N1CC2` (centres undefined): the RP-LC retention time stood at 624 s.

`O=C(Nc1cccc(F)c1)C1CCc2nc(N3CCOCC3)ncc2C1` (centres undefined) yielded an RP-LC retention time of 778 s.

Compound `Cc1nc(-c2noc(-c3cccc(F)c3)n2)cn1CC(=O)Nc1cccc(F)c1` returned an RP-LC retention time of 889 s.

Regarding `O=C(NCCn1c(=O)n(Cc2ccccc2)c2cccnc21)c1nccc2ccccc12`, the RP-LC retention time came out at 836 s.

For `COc1ccc(CNC(=O)c2cnc(OC)nc2)c(OC)c1`, the RP-LC retention time came to 715 s.

For `Cc1nc(C2(C)CCN(S(=O)(=O)c3ccc(F)c(C)c3)CC2)no1`, the RP-LC retention time was found to be 927 s.

`Cc1cc(NC(=O)c2ccccc2)cc(C)c1O` had an RP-LC retention time of 705 s.

The compound `CCN(CC)S(=O)(=O)c1ccc2nc(Cl)cnc2c1` showed an RP-LC retention time of 950 s.

In turn, `Cc1c(S(=O)(=O)N2CCC(C(=O)NCc3csc(-c4ccccc4)n3)CC2)cnn1C(F)F` displayed an RP-LC retention time of 868 s.

On to `NC(=O)c1cc2c(s1)N(CC1CC1)CCCC2`, for which the RP-LC retention time was determined as 827 s.

Regarding `CCCN(CCC)CCCNC(=O)C1=C(C)C(=O)OC12CCN(Cc1ccccc1)CC2`, the RP-LC retention time was 558 s.

Source of the values: the METLIN SMRT retention time set (Domingo-Almenara et al. 2019).
